Measured values from ChEMBL document CHEMBL1201862, “PubChem BioAssay data set” (2004).
Structures can show the parent of a compound that is named as a salt.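 Method: 48-hour compound exposure of cells in 96-well plates, five concentrations, linear interpolation of endpoints. GI50: concentration for 50% inhibition of growth.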 The source made the active and inactive calls. Cut-off read from the data, not from the text of the source: active = GI50 up to about 1.1 µM and inactive = higher.

Experiments:
Assay in all cases: NCI anticancer screen, dose series, 48 h
COLO 205 = tested on: COLO 205
DU-145 = tested on: DU-145
HCT-116 = tested on: HCT-116
HT-29 = tested on: HT-29
K562 = tested on: K562
LOX IMVI = tested on: LOX IMVI
M14 = tested on: M14
NCI-H226 = tested on: NCI-H226
OVCAR-3 = tested on: OVCAR-3
PC-3 = tested on: PC-3
RPMI-8226 = tested on: RPMI-8226
RXF 393 = tested on: RXF 393
SF-268 = tested on: SF-268
SK-MEL-28 = tested on: SK-MEL-28
SN12C = tested on: SN12C
SR = tested on: SR
SW-620 = tested on: SW-620
TK-10 = tested on: TK-10
U-251 = tested on: U-251
UO-31 = tested on: UO-31

`O=C(O)C1C(C(=O)O)C(C(=O)O)C1C(=O)O` (stereo not given) was tested, and the GI50 (COLO 205) was > 100 µM (inactive), the GI50 (DU-145) was > 100 µM (inactive) and the GI50 (HCT-116) was > 100 µM (inactive). The GI50 (HT-29) was > 100 µM (inactive), the GI50 (K562) was > 100 µM (inactive) and the GI50 (LOX IMVI) was > 100 µM (inactive). The GI50 (M14) was > 100 µM (inactive), the GI50 (NCI-H226) was > 100 µM (inactive) and the GI50 (OVCAR-3) was > 100 µM (inactive). The GI50 (PC-3) was > 100 µM (inactive), the GI50 (RPMI-8226) was > 100 µM (inactive) and the GI50 (RXF 393) was > 100 µM (inactive). For the same compound, the GI50 (SF-268) was > 100 µM (inactive), the GI50 (SK-MEL-28) was > 100 µM (inactive) and the GI50 (SN12C) was > 100 µM (inactive). The GI50 (SR) was 28.9 µM (inactive), the GI50 (SW-620) was > 100 µM (inactive) and the GI50 (TK-10) was > 100 µM (inactive). The GI50 (U-251) was > 100 µM (inactive) and the GI50 (UO-31) was > 100 µM (inactive).
`CSc1nc(C)cc(Nc2ccc(O)c(CN3CCOCC3)c2)n1` was tested, and the GI50 (COLO 205) was > 100 µM (inactive), the GI50 (DU-145) was > 100 µM (inactive) and the GI50 (HCT-116) was > 100 µM (inactive). The GI50 (HT-29) was 76.9 µM (inactive), the GI50 (K562) was > 100 µM (inactive) and the GI50 (LOX IMVI) was > 100 µM (inactive). The GI50 (M14) was > 100 µM (inactive), the GI50 (NCI-H226) was > 100 µM (inactive) and the GI50 (OVCAR-3) was > 100 µM (inactive). For the same compound, the GI50 (PC-3) was > 100 µM (inactive), the GI50 (RPMI-8226) was > 100 µM (inactive) and the GI50 (RXF 393) was > 100 µM (inactive). For the same compound, the GI50 (SF-268) was > 100 µM (inactive), the GI50 (SK-MEL-28) was > 100 µM (inactive) and the GI50 (SN12C) was > 100 µM (inactive). For the same compound, the GI50 (SR) was > 100 µM (inactive), the GI50 (SW-620) was > 100 µM (inactive) and the GI50 (TK-10) was > 100 µM (inactive). The GI50 (U-251) was > 100 µM (inactive) and the GI50 (UO-31) was 71 µM (inactive).
`COc1ccc2c(c1)O[C@@H]1[C@@H](OC3OC(CO)C(O)C(O)C3O)Oc3cc(OC)c(OC)cc3[C@]1(O)C2=O` (stereo not given in full) was tested, and the GI50 (COLO 205) was > 100 µM (inactive), the GI50 (DU-145) was > 100 µM (inactive) and the GI50 (HCT-116) was > 100 µM (inactive). For the same compound, the GI50 (HT-29) was > 100 µM (inactive), the GI50 (K562) was > 100 µM (inactive) and the GI50 (LOX IMVI) was > 100 µM (inactive). For the same compound, the GI50 (M14) was > 100 µM (inactive), the GI50 (NCI-H226) was 34 µM (inactive) and the GI50 (OVCAR-3) was > 100 µM (inactive). For the same compound, the GI50 (PC-3) was > 100 µM (inactive), the GI50 (RPMI-8226) was > 100 µM (inactive) and the GI50 (RXF 393) was > 100 µM (inactive). For the same compound, the GI50 (SF-268) was > 100 µM (inactive), the GI50 (SK-MEL-28) was 25.8 µM (inactive) and the GI50 (SN12C) was > 100 µM (inactive). For the same compound, the GI50 (SR) was > 100 µM (inactive), the GI50 (SW-620) was 17.5 µM (inactive) and the GI50 (TK-10) was > 100 µM (inactive). The GI50 (U-251) was > 100 µM (inactive) and the GI50 (UO-31) was > 100 µM (inactive).
In the case of `CC(=O)O[C@H]1C(=O)[C@@]2(C)[C@H]([C@H](OC(=O)c3ccccc3)[C@]3(O)C[C@H](OC(=O)[C@H](O)[C@@H](NC(=O)c4ccccc4)c4ccccc4C)C(C)=C1C3(C)C)[C@]1(OC(C)=O)CO[C@@H]1C[C@@H]2O`, the GI50 (COLO 205) is reported as 0.136 µM (active), the GI50 (DU-145) is reported as 1.85 µM (inactive) and the GI50 (HCT-116) is reported as 0.177 µM (active). For the same compound, the GI50 (HT-29) was 0.13 µM (active), the GI50 (K562) was 0.211 µM (active) and the GI50 (LOX IMVI) was 0.631 µM (active). The GI50 (M14) was 0.55 µM (active), the GI50 (NCI-H226) was 1.71 µM (inactive) and the GI50 (OVCAR-3) was 0.324 µM (active). For the same compound, the GI50 (PC-3) was 0.258 µM (active), the GI50 (RPMI-8226) was 0.0904 µM (active) and the GI50 (RXF 393) was 0.525 µM (active). For the same compound, the GI50 (SF-268) was 1.2 µM (inactive), the GI50 (SK-MEL-28) was 1.55 µM (inactive) and the GI50 (SN12C) was 2.11 µM (inactive). The GI50 (SR) was 0.136 µM (active), the GI50 (SW-620) was 0.351 µM (active) and the GI50 (TK-10) was 2.71 µM (inactive). For the same compound, the GI50 (U-251) was 0.361 µM (active) and the GI50 (UO-31) was 6.46 µM (inactive).
With `O=c1c(C(c2cc(OCc3ccccc3)cc(OCc3ccccc3)c2)c2c(O)oc3ccccc3c2=O)c(O)oc2ccccc12` the GI50 (COLO 205) was 8.45 µM (inactive), the GI50 (DU-145) was 6.35 µM (inactive) and the GI50 (HCT-116) was 3.39 µM (inactive). The GI50 (HT-29) was 4.15 µM (inactive), the GI50 (K562) was 3.35 µM (inactive) and the GI50 (LOX IMVI) was 15.3 µM (inactive). For the same compound, the GI50 (M14) was 7.13 µM (inactive), the GI50 (NCI-H226) was 9.64 µM (inactive) and the GI50 (OVCAR-3) was 13.4 µM (inactive). The GI50 (PC-3) was 4 µM (inactive), the GI50 (RPMI-8226) was 1.66 µM (inactive) and the GI50 (RXF 393) was 22.4 µM (inactive). The GI50 (SF-268) was 5.07 µM (inactive), the GI50 (SK-MEL-28) was 12.7 µM (inactive) and the GI50 (SN12C) was 3.71 µM (inactive). For the same compound, the GI50 (SR) was 3.28 µM (inactive), the GI50 (SW-620) was 4.58 µM (inactive) and the GI50 (TK-10) was 11.5 µM (inactive). For the same compound, the GI50 (U-251) was 4.78 µM (inactive) and the GI50 (UO-31) was 4.85 µM (inactive).
`O=C1C=C2S[C@H]3C[C@]2(C=C1Br)C1=C(N3)C(=O)c2[nH]cc3c2C1=NCC3` [(+)-DISCORHABDIN B] was tested, and the GI50 (COLO 205) was 0.0721 µM (active), the GI50 (DU-145) was 1.92 µM (inactive) and the GI50 (HCT-116) was 0.103 µM (active). The GI50 (HT-29) was 0.344 µM (active), the GI50 (K562) was 0.209 µM (active) and the GI50 (LOX IMVI) was 0.347 µM (active). The GI50 (M14) was 0.726 µM (active), the GI50 (NCI-H226) was 2.24 µM (inactive) and the GI50 (OVCAR-3) was 0.347 µM (active). For the same compound, the GI50 (PC-3) was 1.83 µM (inactive), the GI50 (RPMI-8226) was 0.305 µM (active) and the GI50 (RXF 393) was 0.272 µM (active). The GI50 (SF-268) was 1.54 µM (inactive), the GI50 (SK-MEL-28) was 1.4 µM (inactive) and the GI50 (SN12C) was 1.23 µM (inactive). For the same compound, the GI50 (SR) was 2.69 µM (inactive), the GI50 (SW-620) was 0.0857 µM (active) and the GI50 (TK-10) was 1.4 µM (inactive). For the same compound, the GI50 (U-251) was 1.75 µM (inactive) and the GI50 (UO-31) was 1.57 µM (inactive).
For `CN1C[C@H](C(=O)N[C@]2(C)O[C@@]3(O)[C@@H]4CCCN4C(=O)[C@H](Cc4ccccc4)N3C2=O)C=C2c3cccc4[nH]cc(c34)C[C@H]21` [ERGOTAMINE TARTRATE], the GI50 (COLO 205) was 16.5 µM (inactive), the GI50 (DU-145) was 22.2 µM (inactive) and the GI50 (HCT-116) was 21 µM (inactive). For the same compound, the GI50 (HT-29) was 23.9 µM (inactive), the GI50 (K562) was 25.4 µM (inactive) and the GI50 (LOX IMVI) was 15.5 µM (inactive). For the same compound, the GI50 (M14) was 22.3 µM (inactive), the GI50 (NCI-H226) was 30.3 µM (inactive) and the GI50 (OVCAR-3) was 18.3 µM (inactive). The GI50 (PC-3) was 18.3 µM (inactive), the GI50 (RPMI-8226) was 22.9 µM (inactive) and the GI50 (RXF 393) was 18 µM (inactive). The GI50 (SF-268) was 13.2 µM (inactive), the GI50 (SK-MEL-28) was 17.1 µM (inactive) and the GI50 (SN12C) was 20 µM (inactive). For the same compound, the GI50 (SR) was 16.1 µM (inactive), the GI50 (SW-620) was 23.4 µM (inactive) and the GI50 (TK-10) was 17.4 µM (inactive). The GI50 (U-251) was 18.6 µM (inactive) and the GI50 (UO-31) was 29.1 µM (inactive).
